In US20030083266A1 (priority 2002, published 2003):
Blank lines part the entries; values can stand above or below the molecule they belong to.

Assays:
PC12 cells [1] = experiment: In vitro intracellular antioxidation: [3H]-thymidine uptake by PC12 cells under 6-hydroxy-dopamine oxidative stress; type: cell-based; settings: 0.5 mM 6-hydroxy-dopamine 24 hour
Protocol: One of the main characteristics of the oxidative effects in PC12 cells are mimicked by 6-hydroxy-dopamine which is a false neurotransmitter taken up by the cells. Therefore, 6-hydroxy-dopamine was used as another oxidative agent and tested the protective antioxidant efficiencies of compounds A-D within the cells.
With reference now to FIG. 2. To this end, PC12 cells were subjected to high concentration (0.5 mM) of 6-hydroxy-dopamine (6-HO-DA) for 24 hour, in the presence of 0.3 mM or 0.8 mM of compounds A-D or 1 mM of reduced glutathione (GSH) a natural antioxidant, as shown in the front row of FIG. 2. A similar set of cells was treated with the same concentrations of compounds A-D and of reduced glutathione, yet without 6-hydroxy-dopamine, as shown in the back row of FIG. 2. Due to the high lipophylicity of the antioxidants used, they were first dissolved in dimethyl sulfoxide (DMSO), then in water and were applied to the cells in a final concentration of 3% DMSO. [^3H]-thymidine was added to the cells (1 μCi/100,000 cells) six hours prior to the end of the 24 hour period.
The results presented in FIG. 2 are the mean of triplicate wells taken from three independent cell batches, wherein control represent untreated cells and is defined as 100% [^3H]-thymidine uptake. The effect of DMSO on the cells was tested separately as shown.

[2] = system: Neuroblastoma SHSY5Y (NB) cells; experiment: Protection from oxidative stress in vitro, neutral red survival assay; type: cell-based
Protocol: Protection from oxidative stress in vitro: Neuroblastoma SHSY5Y (NB) cells were maintained in Dulbeco's Modified Eagle's Medium (DMEM), supplemented with 8% FCS and 8% horse serum, penicillin (25 μg/ml), streptomycin (25 μg/ml), 2 mM L-glutamine and 400 μg/ml G418 (Gibco/BRL). For protection experiments cells were subcultured (in 2% serum) to poly-L-lysine-coated 96-well microtiter plates (Nunc), 100 μl of 5×10^5 cells/ml, CEA was applied to the cells in each well and 4 hours later DA, L-dopa (levodopa), 6-OHDA and MPP+ were added for 24 hours.
Survival was assayed by adding neutral red (0.34%, Sigma) to cells in DCCM-1 medium (0.1 ml/well, Bet-Haemek) and incubation for 2 hour at 37° C. The cells were then washed with cold PBS containing 10 mM MgCl2 and the dye was dissolved in 50% ethanol in 50% Somerson buffer (70 mM sodium citrate, 30 mM citric acid, 0.1 N HCl). ELISA reader (590 nm) was used to measure the remaining color intensity.

GSH = experiment: Brain GSH levels after IP injection of compound J (HPLC); type: in vivo, C57BL/6J mice; settings: mice brain extract after IP injection
[3] = Crossing the blood-brain-barrier: compound level in brain extracts by HPLC after IP injection; type: in vivo, C57BL/6J mice; settings: mice
Protocol: Detection of compound j (referred to in this Example also as CEA) was established using high performance liquid chromatography (HPLC). To this end, CEA was treated with a fluorescent thiolyte reagent (monobromobimane reagent) and analyzed on an HPLC column.
Crossing the blood-brain-barrier: In vivo experiments were carried out on C57BL/6J mice (15 grams) injected IP with compound J. After incubation (15 min, 60 min or 4 hours) the mice were anesthetized with ether and blood samples were drawn. Then mice underwent perfusion with 50 ml of saline, injected into the right ventricle. The levels of […] in the brain and in the plasma were detected by selective fluorescent labeling using high performance liquid chromatography (HPLC).
Increasing amounts of compound J were injected IP and 15 min later, mice were perfused with saline and compound J levels in the brain extracts were determined by HPLC chromatography (FIG. 5b), as compared to a control, pure, uninjected compound J (FIG. 5a).

PC12 cells [4] = experiment: In vitro extracellular antioxidation: [3H]-thymidine uptake by PC12 cells under dopamine oxidative stress; type: cell-based; settings: 0.5 mM dopamine 24 hours
Protocol: Compounds A-D were assayed in vitro for their extracellular antioxidant activities. The assays were carried out with PC12 cells (Offen et al., 1996) subjected to a high dose of dopamine which confers oxidative stress to these cells by forming oxidation products during its oxidation in the growth medium, i.e., extracellularly.
With reference now to FIG. 1. To this end, PC12 cells were subjected to high concentration of dopamine (0.5 mM) for 24 hours in the presence of increasing concentrations (0 mM, 0.03 mM, 0.1 mM, 0.3 mM and 0.9 mM) of the various compounds A-D. [^3H]-thymidine was added to the cells (1 μCi/100,000 cells) six hours before the end of the 24 hours period. Due to the high lipophylicity of compounds A-D, the compounds were first dissolved in dimethyl sulfoxide (DMSO) and then in water and were applied to the cells in a final concentration of 3% DMSO. The effect of 3% DMSO on the cells was tested separately and the values presented in FIG. 1 are after the appropriate corrections.
[^3H]-thymidine uptake was measured in triplicate wells containing cells pretreated with dopamine alone and dopamine with each of compounds A-D at the concentrations as indicated above. The results presented in FIG. 1 show the mean of triplicate wells taken from three independent cell batches, wherein control represent cells treated only with 3% DMSO and is defined as 100% [^3H]-thymidine uptake (not shown).

[5] = system: endogenous reduced glutathione (GSH); experiment: In vivo antioxidation: striatum/serum endogenous GSH after IP injection; parameters: species or system Balb/c mice; settings: mice, injected IP, 100-300 mg/kg, three hours post injection
Protocol: With reference now to FIG. 3. To this end, three groups of two months old Balb/c mice containing two animals in each group were injected intraperitonealy (IP) with 100-300 mg/kg body weight of compound A. Blood samples were drawn from the tail three hours post injection and then the animals were sacrificed and either the corpus striatum or the whole brain were removed and analyzed for GSH levels.
GSH levels were determined using the experimental procedures as described hereinbelow and/or the GSH-400 kit (Oxis International, Inc.).
Preparation of brain homogenates: Animals were rapidly killed and exsanguinated to remove excess blood from the brain. The brain of each animal was rinsed in a beaker containing water, lightly blotted to dry and were weighted. The striatums were transferred into a hand-homogenizer tube and each was homogenized using a constant number (e.g., 20) of up and down strokes of the hand-homogenizer pestle. Each of the homogenates was poured into a centrifuge tube and centrifuged for 10,000×g for 5 min. The supernatant was used for GSH determination as follows.
GSH Assay: For each measurement, 200 μl of sample were incubated with 20 μl DTNB [5,5′ dithio bis(2-nitrobenzoic acid)] for 1 hour in 37° C. Final absorbance was measured at 400 nm. Similar results were obtained using the GSH-400 kit. […]

Compound: CC(=O)N[C@H](C(=O)O)C(C)(C)S [compound C, N-acetyl-β,β-dimethyl cysteine]
Increase of [3H]-thymidine uptake of 6-hydroxy-dopamine treated cells (PC12 cells [1]; compound at 0.3 mM): Ca. 1.5

Compound level in the brain ([3]; IP injection 0.25-4 mg, 15 min, brain extracts): concentration-dependent increase
Crossing of the BBB ([3]; IP injection, fluorescent labeling and HPLC): crosses the BBB
Compound: CC(=O)NC(CS)C(N)=O (stereo not shown) [compound J]
Cell survival ([2]; 0.3 mM compound, neutral red assays): up to 95%
Protection of cells against toxicity (>50%) of DA, L-dopa, 6-OHDA and MPP+ ([2]; compound at 0.1 mM, DA, L-dopa, 6-OHDA 0.1-0.25 mM, MPP+ 0.5-2 mM, 24 hours): protect the cells
Increase of GSH levels over untreated animals (GSH): up to 46%

Compound: CCOC(=O)C(NC(C)=O)C(C)(C)S (stereo not shown) [compound B, N-acetyl-penicillamine ethyl ester]
Increase of [3H]-thymidine uptake (PC12 cells [4]; compound at 0.03 mM): Ca. 1.5

Compound: CCOC(=O)CNC(=O)C(CS)NC(=O)CCC(N)C(=O)O (stereo not shown) [compound D, Glutathione ethyl ester]
Increase of [3H]-thymidine uptake of 6-hydroxy-dopamine treated cells (PC12 cells [1]; compound at 0.3 mM): Ca. 3.5
Increase of [3H]-thymidine uptake of 6-hydroxy-dopamine treated cells (PC12 cells [1]; compound at 0.8 mM): Ca. 3.5
Increase of [3H]-thymidine uptake (PC12 cells [4]; compound at 0.03 mM): Ca. 2.5
Increase of [3H]-thymidine uptake (PC12 cells [4]; compound at 0.1 mM): Ca. 2.5

Crossing of the blood brain barrier [5]: crosses the blood brain barrier
Compound: CCOC(=O)[C@H](CS)NC(C)=O [compound A, N-acetyl cysteine ethyl ester]
Level of endogenous GSH at the striatum [5]: increases the level of endogenous GSH
